Tests used:
[1] = system: A549 adenocarcinoma alveolar epithelial cancer cells; experiment: Antiproliferative activity (NCI procedure, sulforhodamine B), A549; format: cell-based, human; details: Homo sapiens, A549, 48 h; for IC50: unit inferred, tested 781 nM to 100 μM
Protocol: (§1) The antiproliferative activity of compounds 3a-b, 4a-e, 5a-e and 6a-e was subsequently evaluated using the human HT-29 colon adenocarcinoma and the A549 adenocarcinoma alveolar epithelial cancer cell lines, the HaCaT spontaneously transformed aneuploid immortal keratinocyte cell line and the HDFn neonatal dermal fibroblast cell line (Table 2). Cell growth inhibition was assessed according to the NCI/NIH Developmental Therapeutics Program.
(§2) The antiproliferative activity assay of all compounds was assessed using the procedure recommended by the National Cancer Institute for its drug screening program with minor modifications. Briefly, 96-well microtiter plates were seeded with 75 μL of a suspension of either HaCaT (5×10^3), HT-29 (3.0×10^3), A549 (3.0×10^3) or HDFn (3×10^3) cells per well in DMEM and incubated for 24 h at 37° C. in a moisture-saturated atmosphere containing 5% CO2. Compounds freshly solubilized in DMSO (40 mM) were diluted in fresh DMEM, and 75 μL aliquots containing serially diluted concentrations of the compound were added. Final compound concentrations ranged from 100 μM to 781 nM. DMSO was maintained at a concentration of <0.5% (v/v) to avoid any related cytotoxicity. Plates were subsequently incubated for 48 h. Cell growth was then stopped by the addition of cold trichloroacetic acid to the wells (10% w/v, final concentration), followed by a 1 h incubation period at 4° C. The plates were washed 4-times with water. A sulforhodamine B solution (75 μL; 0.1% w/v) in acetic acid (1%) was subsequently added to each well and the plates incubated over a 15 min period while at room temperature. After staining, any unbound dye was removed by washing 4-times with an acetic acid solution (1%). Bound dye was solubilized in 20 mM Tris base and the absorbance was measured at an optimal wavelength (530-568 nm) using a μQuant® Universal microplate spectrophotometer (BioTek, Winooski, Vt.). The measurements for treated cells were compared with measurements from control cell plates fixed on treatment day and the percentage of cell growth inhibition was calculated for each drug. The experiments were performed at least twice in triplicate. The assays were considered valid when the coefficient of variation for a given set of conditions and within the same experiment was <10%.

[2] = system: HaCaT keratinocyte cell line; experiment: Antiproliferative activity (NCI procedure, sulforhodamine B), HaCaT; format: cell-based, human; details: Homo sapiens, HaCaT, 48 h; for IC50: unit inferred, tested 781 nM to 100 μM
Protocol: as §1, §2

[3] = system: IL-6; experiment: IL-6 expression in HaCaT cells stimulated with IL-17A and TNFα (ELISA); format: cell-based, human; details: 10 μM solutions; HaCaT stimulated with IL-17A and TNFα; mean of five experiments in duplicate
Excerpt: The effect of compounds 3a-b, 4a-e, 5a-e and 6a-e on the expression of IL-6 was subsequently assessed using the HaCaT spontaneously transformed aneuploid immortal keratinocyte cell line, stimulated by the addition of IL-17A and TNFα in the culture medium (Table 1). Curcumin and ibuprofen were used as known IL-6 expression inhibitors. DMSO was used for solubilizing the drugs. […] Indeed, the inhibitory effect of these molecules was at least equivalent to that of curcumin [27] and ibuprofen, both recognized as anti-inflammatory drugs. The inhibitory effect of the substituted phenyl cycloalkylureas in accordance with an embodiment of the present disclosure on proinflammatory cytokines was also found at the mRNA level. Indeed, the mRNAs of the cytokines IL-6 and TNF-α as well as the mRNA of the chemokine IL-8 were lowered in TNF-α/IL-17A-stimulated HaCaT cells. Similar results were obtained in THP-1 cells stimulated with LPS where treatments with CHEU and 4e diminished the mRNA levels of the cytokines IL-1B, IL-6 and TNF-α in addition to the mRNA levels of the chemokine IL-8. It is surmised that the anti-inflammatory mechanism of action of the compounds of the present disclosure is likely mediated, at least in part, by modulating the phosphorylation state of the MAP kinase p38. […] Addition of a compound in accordance with an embodiment of the present disclosure, prior to stimulation with the aforementioned cytokines, decreases the level of p-p38 at 30-60 minutes post-stimulation. This diminution in p-p38 levels destabilizes the mRNAs of pro-inflammatory cytokines, non-limiting examples of which include TNF-α and IL-6. Moreover, it is surmised that the effect of the compounds of the present disclosure on p-p38 is potentially mediated by the activation of the phosphatase named DUSP1.
HaCaT cells (1×10^5) were suspended in DMEM culture media (500 μL) and incubated for 24 h in 24-well microtiter plates at 37° C. in a moisture-saturated atmosphere containing 5% CO2. Compounds were solubilized in DMSO and diluted in fresh DMEM. The compound (500 μL) was then added to the cell medium to obtain a final concentration of […] and the cells incubated over a period of 1 hour. In the meantime, IL-17α (200 ng/mL) and TNFα (20 ng/mL) (PeproTech, Rocky Hill, N.J.) were added to the drug solution in DMEM. Following the initial incubation of the cells, the culture medium was aspirated from each well and the IL-17α+ TNFα+ compound solution was added to each well for incubation (6 hours). The culture media was then removed and transferred to a clean tube (1.5 mL) at −80° C. until the ELISA test was performed. The presence of IL-6 in the cell media was determined using an IL-6 human Duoset ELISA kit (Fisher Scientific, Ottawa, On.) according to the manufacturer's instructions. Standards and samples were prepared and assessed in duplicate. Two separate replicates were performed for each sample. The absorbance was measured at 450 nm and 540 nm using a TECAN infinite M1000 plate reader.

[4] = system: HT-29 colon adenocarcinoma cells; experiment: Antiproliferative activity (NCI procedure, sulforhodamine B), HT-29; format: cell-based, human; details: Homo sapiens, HT-29, 48 h; for IC50: unit inferred, tested 781 nM to 100 μM
Protocol: as §1, §2

[5] = system: HDFn neonatal dermal fibroblast cell line; experiment: Antiproliferative activity (NCI procedure, sulforhodamine B), HDFn; format: cell-based, human; details: Homo sapiens, Fibroblast, 48 h; for IC50: unit inferred, tested 781 nM to 100 μM
Protocol: as §1, §2

[6] = system: HaCaT cells; experiment: Cell cycle analysis by flow cytometry; format: cell-based, human; details: 10 μM, 24 h
Protocol: The effect of compounds 3a-b, 4e, 5b-c, 6a and 6e on cell cycle progression was subsequently assessed using a flow cytometer in accordance with established experimental protocols to evaluate any potential drug toxicity at specific phases of the cell cycle (Table 3).
HaCaT cells (2.5×10^5) were incubated with compounds 3a-b, 4e, 5b-c, 6a and 6e and curcumin (10 μM) over a period of 24 h. The cells were subsequently trypsinized, washed with PBS, resuspended in PBS (250 μL), fixed by the addition of ice-cold EtOH (750 μL) under agitation and stored at −20° C. until analysis. Prior to FACS analysis, cells were washed with PBS and resuspended in PBS (500 μL) containing 4′,6′-diamidino-2-phenylindole (DAPI) (2 μg/mL). The cell cycle was analyzed using an LSR II flow cytometer (BD Biosciences, Franklin Lakes, N.J.).

melting point | Compound | IC50 ([1]; Table 8) | IC50 ([2]; Table 8) | IC50 ([4]; Table 8) | IC50 ([5]; Table 8) | also measured
 | O=C(Nc1ccc(I)cc1)NC1CC1 [Compound 20, 1-Cyclopropyl-3-(4-iodophenyl)urea] |  |  |  |  | GI50 ([1]; Table 2): > 100 µM; IC50 ([1]; Table 6): ≥ 100 µM; GI50 ([2]; Table 2): > 100 µM; IC50 ([2]; Table 6): ≥ 100 µM; Expression of IL-6, HaCaT [3]: 47.9 ± 4.5 pg/mL; GI50 ([4]; Table 2): 82 µM; IC50 ([4]; Table 6): 82 µM; GI50 ([5]; Table 2): 95 µM; IC50 ([5]; Table 6): 95 µM
115 to 120 °C | O=C(NCC1CCC1)Nc1cccc(C2CCCCC2)c1 [Compound 68] |  |  |  |  | IC50 ([1]; Table 6): 8 µM; IC50 ([2]; Table 6): 3.7 µM; IC50 ([4]; Table 6): 5.6 µM; IC50 ([5]; Table 6): 12 µM
132 to 137 °C | O=C(Nc1cccc(C2CCCCC2)c1)NC1CCCC1 [Compound 69] |  |  |  |  | IC50 ([1]; Table 6): 12 µM; IC50 ([2]; Table 6): 4 µM; IC50 ([4]; Table 6): 8.9 µM; IC50 ([5]; Table 6): 7.6 µM
144 to 152 °C | S=C(NCC1CCC1)Nc1ccc(C2CCCCC2)cc1 [Compound 88] | 15.3 µM | 32.5 µM | 20.4 µM | 15.7 µM | 
146 to 152 °C | S=C(Nc1ccc(C2CCCCC2)cc1)NC1CCCC1 [Compound 89] | 20 µM | 34.9 µM | 21.6 µM | 14.6 µM | 
105 to 111 °C | CC(C)(C)c1cccc(NC(=S)NCC2CCC2)c1 [Compound 90] | 17.5 µM | 34.3 µM | 20.2 µM | 18.2 µM | 
170 to 180 °C | CC(C)(C)c1cccc(NC(=S)NC2CCCC2)c1 [Compound 91] | 19.4 µM | 31.8 µM | 21 µM | 16.3 µM | 
98 to 108 °C | S=C(NCC1CCC1)Nc1ccc(I)cc1 [Compound 92] | 26.2 µM | 48.2 µM | 27.2 µM | 24.2 µM | 
157 to 165 °C | S=C(Nc1ccc(C2CCCCC2)cc1)NC1CC1 [Compound 93] | 20.8 µM | 84.7 µM | 30.8 µM | 84 µM | 
109 to 115 °C | CCNC(=S)Nc1ccc(C(C)(C)C)cc1 [Compound 94] | 71.1 µM | > 100 µM | 92 µM | 94 µM | 
119 to 143 °C | CC(C)(C)c1ccc(NC(=S)NC2CC2)cc1 [Compound 95] | 57.9 µM | 94.5 µM | 64.4 µM | 60 µM | 
129 to 146 °C | CC(C)(C)c1ccc(NC(=S)NCC2CCC2)cc1 [Compound 96] | 23.3 µM | > 100 µM | 44 µM | > 100 µM | 
142 to 154 °C | CC(C)(C)c1ccc(NC(=S)NC2CCCC2)cc1 [Compound 97] | 26.2 µM | 40 µM | 28.8 µM | 22.6 µM | 
136 to 147 °C | S=C(Nc1cccc(I)c1)NC1CCCC1 [Compound 98] | 21.9 µM | 32.8 µM | 23.4 µM | 16.4 µM | 
136 to 147 °C | S=C(NCC1CCC1)Nc1cccc(I)c1 [Compound 99] | 26.2 µM | 35.5 µM | 27 µM | 19.4 µM | 
125 to 140 °C | CC(C)(C)c1cccc(NC(=S)NC2CC2)c1 [Compound 100] | 70 µM | > 100 µM | 75.7 µM | > 100 µM | 
166 to 180 °C | S=C(Nc1ccc(I)cc1)NC1CC1 [Compound 101] | 65.1 µM | > 100 µM | 63.3 µM | > 100 µM | 
154 to 162 °C | S=C(Nc1ccc(I)cc1)NC1CCCC1 [Compound 102] | 25.3 µM | 39.1 µM | 25.1 µM | 18.6 µM | 
142 to 152 °C | S=C(Nc1cccc(I)c1)NC1CC1 [Compound 103] | > 100 µM | > 100 µM | > 100 µM | > 100 µM | 
122 to 128 °C | S=C(Nc1cccc(C2CCCCC2)c1)NC1CC1 [Compound 105] | 15.9 µM | 16.3 µM | 12.7 µM | 14.7 µM | 
102 to 110 °C | S=C(NCC1CCC1)Nc1cccc(C2CCCCC2)c1 [Compound 106] | 17 µM | 14.9 µM | 13.2 µM | 4.9 µM | 
129 to 142 °C | S=C(Nc1cccc(C2CCCCC2)c1)NC1CCCC1 [Compound 107] | 6.2 µM | 7.9 µM | 5.7 µM | 3.8 µM | 
 | CCNC(=O)Nc1ccc(C(C)(C)C)cc1 [tBEU, reference compound] |  |  |  |  | Cell cycle progression G0-G1 [6]: 55.5; Cell cycle progression G2-M [6]: 19.1; Cell cycle progression S [6]: 25.3

— US20210163404A1, “NOVEL UREA COMPOUNDS AND BIOISOSTERES THEREOF AND THEIR USE FOR TREATING INFLAMMATION AND INFLAMMATION-RELATED PATHOLOGIES” (UNIVERSITÉ LAVAL, priority 2017, published 2021)
